Measurements taken from article PMC11617094 (Molecular Biology of the Cell, 2024).
Numbering of substitutions follows the chain as printed. Names and notes keep the numbering of the source. Blank lines part the entries; values can stand above or below the molecule they belong to.

How the values were obtained:
Alp7A [1] = biological target: T1, Alp7A (Bacillus subtilis, UniProt C7F6X5); experiment: EnzChek phosphate release (ATPase on polymerization); assay type: biochemical; settings: 10 mM ATP/Mg, 25 mM Tris pH 7.5, 100 mM KCl, 1 mM MgCl2, 1 mM DTT; no Alp7R
T1 construct: untagged native Alp7A encoded by plasmid pLS20, codon-optimised gene in pET28a (NcoI/HindIII), expressed in E. coli C43, purified by a polymerization cycle and gel filtration; forms two-stranded filaments
T1 sequence (C7F6X5 1-391): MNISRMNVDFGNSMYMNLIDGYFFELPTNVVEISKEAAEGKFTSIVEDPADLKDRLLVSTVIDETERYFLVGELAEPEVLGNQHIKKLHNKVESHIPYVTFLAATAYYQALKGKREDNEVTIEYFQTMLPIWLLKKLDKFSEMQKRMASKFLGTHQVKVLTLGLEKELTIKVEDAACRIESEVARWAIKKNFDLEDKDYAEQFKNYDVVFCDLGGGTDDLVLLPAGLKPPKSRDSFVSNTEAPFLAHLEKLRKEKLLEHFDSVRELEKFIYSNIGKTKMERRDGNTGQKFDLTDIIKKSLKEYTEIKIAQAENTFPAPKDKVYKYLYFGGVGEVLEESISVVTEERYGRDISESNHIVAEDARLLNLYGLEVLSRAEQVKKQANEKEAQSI

Alp7A [2] = biological target: T2, Alp7A (Bacillus subtilis, UniProt C7F6X5, E180A); experiment: right-angle light scattering of ATP-induced polymerization; phosphate release; settings: Mg-ATP 3 mM (polymerization) or 10 mM (phosphate release), 25 mM Tris pH 7.5, 100 mM KCl, 1 mM MgCl2, 1 mM DTT; nucleotide-binding pocket mutant
T2 construct: untagged native Alp7A encoded by plasmid pLS20, codon-optimised gene in pET28a (NcoI/HindIII), expressed in E. coli C43, purified by a polymerization cycle and gel filtration; forms two-stranded filaments
T2 sequence (C7F6X5 entry or part of it E180A): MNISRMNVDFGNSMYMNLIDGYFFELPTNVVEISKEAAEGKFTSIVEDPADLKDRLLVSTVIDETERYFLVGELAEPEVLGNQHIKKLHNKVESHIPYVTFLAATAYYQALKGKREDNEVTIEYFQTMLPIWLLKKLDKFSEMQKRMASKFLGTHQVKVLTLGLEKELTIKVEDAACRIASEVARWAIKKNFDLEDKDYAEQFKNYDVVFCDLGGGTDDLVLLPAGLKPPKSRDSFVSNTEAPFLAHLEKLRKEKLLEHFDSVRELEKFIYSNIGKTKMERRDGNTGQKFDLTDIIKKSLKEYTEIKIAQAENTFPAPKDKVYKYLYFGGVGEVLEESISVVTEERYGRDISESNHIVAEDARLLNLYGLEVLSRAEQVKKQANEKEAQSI

[3] = biological target: Alp7A (wild type, native, unlabelled) (Bacillus subtilis (plasmid pLS20)) (UniProt C7F6X5)
[4] = biological target: the molecule itself; experiment: negative-stain electron microscopy; polymers formed with 3 mM ATP/Mg++, adsorbed to carbon-coated grids, 0.75% uranyl formate; buffer as for light scattering

Molecule: Nc1ncnc2c1ncn2[C@@H]1O[C@H](COP(=O)(O)OP(=O)(O)OP(=O)(O)O)[C@@H](O)[C@H]1O [ATP]
EnzChek phosphate release (ATPase on polymerization) (Alp7A [1]): phosphate dissociates rapidly from wild-type Alp7A polymers | right-angle light scattering of ATP-induced polymerization; phosphate release (Alp7A [2]): addition of Mg-ATP to purified Alp7A-E180A induces formation of stable polymers

concentration threshold of the specific ATPase activity (steady-state phosphate release) of Alp7A, taken as the critical concentration for elongation (ccE) [3]: 0.6 µM
Molecule: Alp7A (wild type, native, unlabelled) (from UniProt C7F6X5 1-391) (natural protein)

B1: Alp7A-E180A (hydrolysis-dead mutant, unlabelled) (natural protein, Bacillus subtilis (plasmid pLS20), UniProt C7F6X5 1-391, looked up)
chain: T1 sequence (C7F6X5 1-391) with E180A
binding result [4]: binds
